The source of these data is US9352010B2, “Treatment of HIV-1 infection and AIDS” (The J. David Gladstone Institutes, priority 2011, dated 2016).

One assay concerns human monocytes. As to conditions: LPS and ATP; cited from earlier work.
A further assay relates to CFSE-labeled CD4 T-cells. The assay is classed as cell-based, human. The following applies: for indirect killing (loss) of resting CFSE-labeled CD4 T-cells: NL4-3-infected effector cells. How it is done: (A) Experimental strategy to assess indirect cell killing in HIV-1-infected human lymphoid cultures. Fresh human tonsil tissue from a single donor is processed into HLAC, and then separated into two fractions. One fraction is challenged with HIV-1 and cultured for 6 days, allowing viral spread. On day 5, the uninfected fraction is treated with AZT (5 μM) and labeled with CFSE (1 μM). On day 6, the infected and CFSE-labeled (i.e., uninfected) cultures are mixed and co-cultured in the presence of AZT. […] After 6 days of co-culturing, the number of viable CFSE-positive cells is determined by flow cytometry. (B) Flow cytometry analysis of the mixed HLACs. Indirect killing is determined by gating on live CFSE-positive cells in the mixed cultures. Effector cells are either infected or uninfected cells. […] CFSE-labeled cells mixed with uninfected or infected cells were cultured in the presence of 5 μM AZT alone or together with 250 nM AMD3100. Data represent live CFSE-positive cells 6 days after co-culture with infected or uninfected effector cells. […] The absolute numbers of viable CFSE-positive CD4 and CD8 T-cells and B cells were determined. Percentages are normalized to the number of viable CFSE-positive cells co-cultured with uninfected cells in the presence of AZT, as depicted by (*). Error bars represent standard deviations of three samples from the same donor. […] See also FIG. 3.
(§1) Human tonsil or splenic tissues from routine tonsillectomies were obtained from the National Disease Research Interchange and the Cooperative Human Tissue Network and processed as previously described (Jekle et al., 2003, J Virol 77:5846-5854). In brief, tonsils or spleen were minced, passed through a 40-μm cell strainer, and cultured in 96-well U-bottomed polystyrene plates (2×10^6 cells/well) in medium (200 μl/well) consisting of RPMI 1640 supplemented with 15% heat-inactivated fetal bovine serum, 100 μg/ml gentamicin, 200 μg/ml ampicillin, 1 mM sodium pyruvate, 1% nonessential amino acids (Mediatech), 2 mM L-glutamine, and 1% fungizone (Invitrogen). All HIV-1 infections were carried out with 20-50 ng of HIV-1 p24^gag. Cells were incubated with the virus for 12-16 h, washed extensively, and supplemented with fresh medium. After day 5, infections were monitored by measuring p24gag levels in the culture medium using a FLAQ assay (Hayden et al., 2003, AIDS 17:629-631). Infected and uninfected cultures were manipulated as described for individual experiments. In “indirect killing” assays, unless otherwise stated, drugs were used at the following concentrations: 5 μM AZT; 250 nM AMD3100; 10 μg/ml T20; 100 nM Efavirenz; 1 μM Nevirapine; 30 μM Raltegravir; 60 μM 118-D-24; 5 μM Amprenavir; 5 μM Saquinavir; 5 μM Indinavir. CFSE-labeled cells were activated with PHA (5 μg/ml) and IL-2 (20 ng/ml) 2 days before mixing with effector cells.
Uninfected cells (5×10^6/ml) were labeled with 1 μM CFSE (Molecular Probes C1157), treated with 5 μM AZT for 24 h, and co-cultured with effector cells. CFSE readily diffuses into cells, where intracellular esterases cleave the acetate groups, converting it to a fluorescent, membrane-impermeable dye.

The subject of assay [1] is SupT1 CD4 T leukemic cells. Nature of the assay: Syncytia formation in NL4-3-infected SupT1 cells. In kind it is cell-based. The following applies: 5 μM protease inhibitor, 2.5 days. Here is the method: (A) The spinoculation procedure. (B) Flow cytometry of viable CD4 versus CD8-T-cells in HLAC three days after spinoculation in the presence of the indicated drugs. Data represent live-gated cells, based on the forward-scatter versus side-scatter profile of the complete culture. Of note, apoptotic cells were included in the analysis of caspases activity and cytokine expression (FIG. 10E, F). Drugs concentrations: AZT 5 μM; Efavirenz 100 nM; AMD3100 250 nM; T20 10 μg/ml. The data are representative results of six independent experiments with six different donors. […] (C) Highly permissive SupT1 CD4 T leukemic cells were infected with NL4-3 and cultivated for 3 days to allow substantial infection but not syncytia formation. […] After 2.5 days of additional culture, the extent of syncytia formation in each sample was evaluated by light microscopy. […] Results are representative of three independent experiments.

The test system of the next assay is IL-1β. Nature of the assay: Release of 17-kDa IL-1β from isolated tonsillar CD4 T-cells (ionophore stimulus). As to conditions: nigericin 10 μM. In kind it is cell-based, human. How it is done:
For stimulating the processing and secretion of IL-1, CD4 T-cells were isolated from HLACs by positive selection and treated with 0.5 μM PMA ([…], Calbiochem Cat. #524400) for 6 hours at 37° C. PMA induces large intracellular stores of the 35 kDa pro-IL-1β. Cells were then washed with PBS and treated with 10 μM nigericin (Sigma, Cat. # N7143) overnight at 37° C. The potassium ionophore nigericin mediates an elecroneutral exchange of intracellular K^+ ions for extracellular protons, providing a second inflammatory stimulus, which results in the maturation and release of the bioactive 17 kDa IL-1β(Perregaux et al., 1992, J Immunol 149:1294-1303; Perregaux and Gabel, 1994, J Biol Chem 269:15195-15203).
Isolated tonsillar CD4 T-cells were treated overnight with nigericin (10 μM) to provide a second inflammatory stimulus, resulting in maturation and release of bioactive 17-kDa IL-1β. Supernatants from the cell cultures were subjected to SDS-PAGE and immunoblotting. 17-kDa IL-1β was released after treatment with nigericin, but not with calcium ionophore A23187 or the nonspecific cation ionophore monensin. Thus, while these cells are primed, they must receive the appropriate proinflammatory signal for pro-IL-1β processing and release. […]

The test system of assay [2] is CFSE-labeled spleen CD4 T-cells. Nature of the assay: Indirect killing assay with CFSE-labeled human spleen cells. The assay is classed as cell-based. As to conditions: HIV-infected spleen HLAC effectors. How it is done:
(B and C) Fresh human spleen from a single donor were processed into HLAC and assessed in indirect cell killing assay as described in FIG. 2A. Effector spleen HLAC were stimulated with PHA and IL-2 48 hours before mixing, but not during co-culturing with CFSE-labeled cells. Non-activated resting CFSE-labeled spleen cells were co-cultured with NL4-3-infected or uninfected effector cells in the presence or absence of the following drugs, AZT (5 μM), AMD3100 (250 nM), Efavirenz (100 nM), or Raltegravir (30 μM), as indicated. […] Percentages were normalized to the number of viable CFSE-positive spleen CD4 T-cells co-cultured with uninfected effectors in the presence of AZT, as depicted by (*). Error bars represent standard error of the mean for three experiments performed with three different spleen and tonsil donors.
as §1
Uninfected cells (5×10^6/ml) were labeled with 1 μM CFSE (Molecular Probes C1157), treated with 5 μM AZT for 24 h, and co-cultured with effector cells. CFSE readily diffuses into cells, where intracellular esterases cleave the acetate groups, converting it to a fluorescent, membrane-impermeable dye. […] To quantify indirect killing, mixed (CFSE-labeled+effector) cultures were washed in FACS buffer (PBS supplemented with 2 mM EDTA and 2% fetal bovine serum), stained with PE-conjugated anti-CD4, PerCP-conjugated anti-CD19, and APC-conjugated anti-CD8 (all from BD Pharmingen) and fixed in 1% paraformaldehyde. To determine the absolute numbers of the viable CFSE-labeled cells, a standard number of fluorescent beads (Flow-Count Fluorospheres, Beckman Coulter) was added to each cell-suspension sample before data acquisition. Data were collected on a FACS Calibur (BD Biosciences) and analyzed with Flowjo software (Treestar). The level of indirect killing was defined by sequential gating beginning with forward scatter versus side scatter to select live lymphocytes, subgating on the CFSE-positive population, and calculating the numbers of CD4 or CD8 T or B cells, divided by the number of fluorescent beads acquired.

Assay [3] has as its system HIV-1 reverse transcription products. Nature of the assay: Taqman QPCR of HIV-1 reverse transcription products in infected CD4 T-cells. In kind it is cell-based, human. As to conditions: 16 hours after infection with NL4-3, versus untreated cells. How it is done: Fresh HLACs were washed once with PBS and resuspended with PBS containing 5 mM EDTA and 2% fetal bovine serum. CD4 T-cells were isolated from HLACs by positive selection on CD4 microbeads (Miltenyi) and cultured overnight in 96-well U-bottomed plates (1×10^6 cells/well) as described above, and AZT was added to the indicated cell samples. Next day, the rest of the drugs were added to the indicated cell samples at concentrations as described above. Cells were chilled on ice for 15 min and DNAse-treated (Ambion, 60 U/ml, 1 hour, 37° C.) NL4-3 or Δvif NL4-3 virions (200 ng/well) were added. After a 1 hour incubation with virions on ice, cells were spinoculated at 1200 g for 2 hours at 4° C., incubated at 37° C. for 2 hours, washed three times with cold PBS, and resuspended in fresh RPMI with the indicated drugs. Eight or 16 hours after spinoculation, cell pellets were frozen at −80° C. Total DNA was purified from each cell pellet with a DNAse kit (Qiagen). Primer and probe sequences used to detect reverse transcription products are provided herein. QPCR reactions were performed in triplicates in TaqMan universal PCR master mix using each primer at 3.75 μM and probe at 2.5 μM. After 15 minutes at 95° C., reactions underwent 50 cycles of 15 sec at 95° C. followed by 1 min at 60° C. in an ABI Prism 7900HT (Applied Biosystems).
Next the status of HIV-1 reverse transcription in tonsillar CD4 T-cells after infection was examined. […] Taqman-based quantitative real-time PCR (QPCR) was used to quantify the synthesis of reverse transcription products in isolated CD4 T-cells from HLAC 16 hours after infection with NL4-3. Specific QPCR primers and probes were designed (Table 1) to monitor sequential steps in reverse transcription including generation of strong-stop DNA, first template exchange (Nef), and DNA strand elongation (Env) (FIG. 10A)
For orientation: Real-time PCR tracks product formation cycle by cycle.

A further assay deals with ISRE-GFP H35 cells. Nature of the assay: ISRE-GFP H35 reporter cells. As to conditions: 1 μg transfected. The assay is classed as cell-based, rat. How it is done: Hepatocyte-derived reporter ISRE-GFP H35 cells were maintained as previously described (King et al., 2007, Lab Chip 7:77-85; Patel et al., 2009, Proc Natl Acad Sci USA 106:12867-12872). For microscopic imaging, ISRE-GFP reporter H35 cells were cultured on 35 mm glass bottom culture dishes (MatTeck) and were treated with AZT (5 μM), Efavirenz (100 nM), or Raltegravir (30 μM) 12 hours before infection. Cells were then infected with 2 μg/ml of replication competent VSV-G pseudotyped NL4-3. After 48 hours incubation at 37° C., cells were fixed in 2% paraformaldehyde at 25° C. for 1 hour, washed with PBS and stained with 10 μg/ml Hoechst 33342 (Invitrogen) and 1 μg/ml 7-AAD (eBioscience) for 15 min at 25° C. Cells were washed 3 times with PBS and were analyzed with an Axio observer Z1 microscope (Zeiss) equipped with an EC Plan NEOFLUAR 10×/0.3 PHM27 objective, filter sets 38HE, 45, and 49, and an Axiocam MRM REV 3.

Take `CC(C)c1cc(Cl)cc(C(C)C)c1NC(=O)NS(=O)(=O)c1cccc(C(C)O)c1` (centres unmarked) [CP-412,245]: in the assay with human monocytes, the “post-translational processing and secretion of IL-1β” value is “inhibited the post-translational processing and secretion of IL-1β”. With `CC(C)c1cc(Cl)cc(C(C)C)c1NC(=O)NS(=O)(=O)c1cccc(C(C)(C)O)c1` [CP-424,174], the “post-translational processing and secretion of IL-1β” value in the assay with human monocytes was “inhibited the post-translational processing and secretion of IL-1β”.

Turning to `CC(C)(C)NC(=O)[C@@H]1CN(Cc2cccnc2)CCN1C[C@@H](O)C[C@@H](Cc1ccccc1)C(=O)N[C@H]1c2ccccc2C[C@H]1O` [Indinavir], the “indirect killing (loss) of resting CFSE-labeled CD4 T-cells” value (shortened to “indirect killing (loss)”) in the assay with CFSE-labeled CD4 T-cells was “inhibit indirect killing”. In assay [1], the “syncytia formation / cell-cell fusion” value is on record as “do not block syncytia formation”.

With `CC(C)(C)NC(=O)[C@@H]1C[C@@H]2CCCC[C@@H]2CN1C[C@@H](O)[C@H](Cc1ccccc1)NC(=O)[C@H](CC(N)=O)NC(=O)c1ccc2ccccc2n1` [Saquinavir], the “indirect killing (loss)” value in the assay with CFSE-labeled CD4 T-cells was “inhibit indirect killing”. Also, the “syncytia formation / cell-cell fusion” value in assay [1] is “do not block syncytia formation”. For the compound `Cc1ccc(-c2ccc3c(c2)C=C(C(=O)Nc2ccc(C[N+](C)(C)C4CCOCC4)cc2)CCC3)cc1.[Cl-]` [TAK779], the “indirect killing of CFSE-labeled CD4 T-cells” value with CFSE-labeled CD4 T-cells (WEAU 16-8 (R5/X4)-infected effector cells) is listed as “had no effect”. For the compound `CC(NC(=O)[C@H](Cc1ccccc1)NC(=O)OCc1ccccc1)C(=O)CF` (some centres unmarked) [Z-FA-FMK], the “death of abortively infected CD4 T-cells with caspase inhibitors” value with CFSE-labeled CD4 T-cells (20 μM caspase inhibitor, AZT 5 μM) was “persisted”. Turning to `COC(=O)C[C@H](NC(=O)[C@H](C)NC(=O)[C@@H](NC(=O)[C@H](Cc1ccc(O)cc1)NC(=O)OCc1ccccc1)C(C)C)C(=O)CF` [Z-YVAD], the “nigericin-induced IL-1β release after pre-treatment with caspase inhibitor” value with IL-1β is “blocked”. As for `Cc1ccnc2c1NC(=O)c1cccnc1N2C1CC1` [nevirapine], in the assay on CFSE-labeled CD4 T-cells, the “indirect killing (loss)” value is “blocked indirect killing of resting CD4 T-cells as efficiently as AMD3100”. In the case of `Cc1nnc(C(=O)NC(C)(C)c2nc(C(=O)NCc3ccc(F)cc3)c(O)c(=O)n2C)o1` [raltegravir], the “indirect killing (loss)” value in the assay on CFSE-labeled CD4 T-cells is on record as “did not prevent abortive infection killing”. In addition, the “loss of CFSE-labeled spleen CD4 T-cells” value in assay [2] was “did not prevent CD4 T-cell killing”. The “reverse transcription products corresponding to strong-stop DNA” value in assay [3] is listed as “similar”. For the compound poly(I:C), the “ISRE-GFP reporter activation by transfected nucleic acid” value with ISRE-GFP H35 cells is recorded as “elicited a comparable ISRE-GFP response”.
